Data on 29 compounds can be found in ChEMBL document CHEMBL1130013, “Diltiazem-like calcium entry blockers: a hypothesis of the receptor-binding site based on a comparative molecular field analysis model” (J Med Chem, 1997).

In the experiment the target is Voltage-dependent L-type calcium channel subunit alpha-1D (Rattus norvegicus, UniProt P27732). The experiment in a line: Inhibition of [3H]nitrendipine binding to L-type [Ca2+] channel in rat cortex homogenate, activity expressed as pIC50.
Chain of Voltage-dependent L-type calcium channel subunit alpha-1D (P27732 whole entry): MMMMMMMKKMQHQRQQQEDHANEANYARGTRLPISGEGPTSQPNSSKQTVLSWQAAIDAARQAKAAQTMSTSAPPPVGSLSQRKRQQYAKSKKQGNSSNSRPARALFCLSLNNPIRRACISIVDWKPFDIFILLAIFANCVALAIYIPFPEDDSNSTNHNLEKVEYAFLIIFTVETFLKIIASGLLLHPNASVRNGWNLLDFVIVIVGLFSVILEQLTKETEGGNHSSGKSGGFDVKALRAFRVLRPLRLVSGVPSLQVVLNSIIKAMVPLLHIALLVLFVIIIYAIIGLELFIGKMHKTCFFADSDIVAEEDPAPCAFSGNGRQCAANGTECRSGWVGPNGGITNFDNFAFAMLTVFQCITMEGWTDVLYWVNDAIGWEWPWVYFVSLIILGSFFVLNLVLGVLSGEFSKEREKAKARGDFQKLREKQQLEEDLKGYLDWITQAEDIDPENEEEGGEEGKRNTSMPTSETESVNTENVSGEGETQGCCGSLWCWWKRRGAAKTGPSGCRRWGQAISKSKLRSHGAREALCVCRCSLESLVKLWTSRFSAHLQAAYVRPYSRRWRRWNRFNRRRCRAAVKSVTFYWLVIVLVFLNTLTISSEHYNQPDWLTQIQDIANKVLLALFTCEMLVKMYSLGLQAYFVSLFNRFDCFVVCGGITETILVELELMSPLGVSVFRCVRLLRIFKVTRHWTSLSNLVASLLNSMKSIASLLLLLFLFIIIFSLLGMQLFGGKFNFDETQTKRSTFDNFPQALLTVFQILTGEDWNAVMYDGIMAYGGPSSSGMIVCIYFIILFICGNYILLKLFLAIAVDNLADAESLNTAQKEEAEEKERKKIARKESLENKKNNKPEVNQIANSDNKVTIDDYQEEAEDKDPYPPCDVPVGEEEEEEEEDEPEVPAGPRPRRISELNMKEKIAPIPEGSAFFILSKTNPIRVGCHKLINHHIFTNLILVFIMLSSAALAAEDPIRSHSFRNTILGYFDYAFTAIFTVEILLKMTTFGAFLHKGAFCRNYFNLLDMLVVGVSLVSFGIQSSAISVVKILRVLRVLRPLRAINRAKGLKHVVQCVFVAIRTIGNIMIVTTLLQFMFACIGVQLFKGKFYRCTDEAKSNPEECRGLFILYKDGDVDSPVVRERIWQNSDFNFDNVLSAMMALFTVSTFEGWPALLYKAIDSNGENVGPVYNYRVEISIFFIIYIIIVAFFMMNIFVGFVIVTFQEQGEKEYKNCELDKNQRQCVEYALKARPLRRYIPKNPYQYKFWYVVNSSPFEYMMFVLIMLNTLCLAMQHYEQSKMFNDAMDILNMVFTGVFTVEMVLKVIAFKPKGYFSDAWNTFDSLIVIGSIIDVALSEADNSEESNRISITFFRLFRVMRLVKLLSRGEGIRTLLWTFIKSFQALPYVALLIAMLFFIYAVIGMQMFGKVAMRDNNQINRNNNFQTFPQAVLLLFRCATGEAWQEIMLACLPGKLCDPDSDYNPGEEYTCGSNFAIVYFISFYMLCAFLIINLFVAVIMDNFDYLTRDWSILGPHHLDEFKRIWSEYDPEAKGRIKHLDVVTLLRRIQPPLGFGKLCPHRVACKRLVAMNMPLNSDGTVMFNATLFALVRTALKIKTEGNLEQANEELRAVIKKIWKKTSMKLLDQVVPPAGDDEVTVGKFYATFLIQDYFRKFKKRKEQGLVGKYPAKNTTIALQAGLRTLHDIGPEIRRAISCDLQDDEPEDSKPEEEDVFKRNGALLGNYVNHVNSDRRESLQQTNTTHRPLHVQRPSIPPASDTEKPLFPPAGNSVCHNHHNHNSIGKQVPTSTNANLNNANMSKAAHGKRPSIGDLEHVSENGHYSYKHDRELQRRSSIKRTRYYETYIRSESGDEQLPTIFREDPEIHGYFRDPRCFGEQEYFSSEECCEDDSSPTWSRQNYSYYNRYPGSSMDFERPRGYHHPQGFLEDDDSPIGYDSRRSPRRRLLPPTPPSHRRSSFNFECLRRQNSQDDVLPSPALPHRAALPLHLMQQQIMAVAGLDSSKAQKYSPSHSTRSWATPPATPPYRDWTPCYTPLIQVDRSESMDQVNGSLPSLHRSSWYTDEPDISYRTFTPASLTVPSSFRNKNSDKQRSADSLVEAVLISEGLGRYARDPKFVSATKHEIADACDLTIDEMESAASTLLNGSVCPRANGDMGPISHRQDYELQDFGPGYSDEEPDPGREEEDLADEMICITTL
Broadly, the IC50 is the concentration needed to halve the response being measured. As for `COc1ccc(C2Sc3ccccc3-n3c(CN(C)CCc4ccc(OC)c(OC)c4)ccc32)c(OC)c1` (centres undefined), the IC50 was 1580 nM.

Turning to `CC(=O)O[C@H]1c2ccc(CN(C)C)n2-c2ccccc2S[C@H]1c1ccccc1`, the IC50 is 5010 nM.

`CC(=O)OC1(c2ccccc2)Sc2ccccc2-n2cccc21` (centres undefined): the IC50 was 4680 nM.

`COc1ccc(C2(c3ccc(OC)cc3)Sc3ccccc3-n3c(CN(C)C)ccc32)cc1`: the IC50 is 2190 nM.

As for `COC1(OC)C=CC(C2(C3=CCC(OC)(OC)C=C3)Sc3ccc(C(F)(F)F)cc3-n3cccc32)=CC1`, the IC50 was 5010 nM.

With `Clc1cccc2c1SC(c1ccccc1)(c1ccccc1)c1cccn1-2`, the IC50 was 316 nM.

As for `COc1ccc(C2Sc3ccccc3-n3c(CN(C)C)ccc32)c(OC)c1` (centres undefined), the 50% inhibitory concentration (IC50) was 151 nM.

Turning to `CN(C)Cc1ccc2n1-c1ccccc1SC2c1ccccc1` (centres undefined), the concentration for half-maximal inhibition (IC50) was 316 nM.

Take `CN(C)Cc1ccc2n1-c1cc(C(F)(F)F)ccc1SC2(c1ccccc1)c1ccccc1`: the half-maximal inhibitory concentration (IC50) was 107 nM.

Consider `FC(F)(F)c1ccc2c(c1)-n1cccc1C(c1ccccc1)(c1ccccc1)S2`, for which the half-maximal inhibitory concentration (IC50) is 2040 nM.

`COC1(OC)C=CC(C2(C3=CCC(OC)(OC)C=C3)Sc3ccccc3-n3cccc32)=CC1`: the IC50 was 5010 nM.

`COc1ccc([C@@H]2Sc3ccccc3N3C(=O)CC[C@@H]23)cc1`: the 50% inhibitory concentration (IC50) was 4.37 nM.

With `COc1ccc([C@@H]2Sc3ccc(Cl)cc3-n3c(CN(C)C)ccc3[C@@H]2OC(C)=O)cc1`, the IC50 was 3.31 nM.

In the case of `O=C1CC[C@H]2[C@H](c3ccccc3)Sc3ccccc3N12`, the concentration for half-maximal inhibition (IC50) is 0.776 nM.

In the case of `COc1ccc(CCNCc2ccc3n2-c2ccccc2SC3C2=CCC(OC)(OC)C=C2)cc1OC` (centres undefined), the half-maximal inhibitory concentration (IC50) is 398 nM.

For the compound `CN(C)Cc1ccc2n1-c1cccc(Cl)c1SC2(c1ccccc1)c1ccccc1`, the IC50 is 81.3 nM.

As for `c1ccc(C2(c3ccccc3)Sc3ccccc3-n3cccc32)cc1`, the half-inhibitory concentration (IC50) was 468 nM.

`COc1ccc([C@@H]2Sc3ccc(C(F)(F)F)cc3-n3c(CN(C)C)ccc3[C@@H]2OC(C)=O)cc1`: the 50% inhibitory concentration (IC50) was 5010 nM.

As for `COc1ccc(C2Sc3ccccc3-n3c(CN(C)CCc4ccc(OC)c(OC)c4)ccc32)cc1` (centres undefined), the IC50 is 52.5 nM.

`CCC(C)NCc1ccc2n1-c1ccccc1SC2c1ccc(OC)cc1OC` (centres undefined): the IC50 is 15.1 nM.

For the compound `COc1ccc(C2(OC(C)=O)Sc3ccccc3-n3cccc32)cc1` (centres undefined), the IC50 was 30.2 nM.

As for `CC(=O)O[C@H]1c2ccc(CN(C)C)n2-c2cc(C(F)(F)F)ccc2S[C@H]1c1ccccc1`, the half-inhibitory concentration (IC50) is 302 nM.

For the compound `COc1ccc(C2Sc3ccccc3-n3c(CN4CCOCC4)ccc32)cc1` (centres undefined), the IC50 was 5010 nM.

On to `CC(=O)O[C@H]1c2ccc(CN(C)C)n2-c2cc(Cl)ccc2S[C@H]1c1ccccc1`, for which the IC50 is 1230 nM.

Consider `CCC(C)NCc1ccc2n1-c1ccccc1SC2C1=CCC(OC)(OC)C=C1` (centres undefined), for which the concentration for half-maximal inhibition (IC50) is 12 nM.

Consider `COc1ccc([C@@H]2Sc3ccccc3-n3c(CN(C)C)ccc3[C@@H]2OC(C)=O)cc1`, for which the IC50 was 135 nM.

Regarding `Clc1ccc2c(c1)-n1cccc1C(c1ccccc1)(c1ccccc1)S2`, the half-inhibitory concentration (IC50) is 4370 nM.

`CC(=O)OC1(c2ccccc2)Sc2ccc(C(F)(F)F)cc2-n2cccc21` (centres undefined): the IC50 is 64.6 nM.

Consider `COc1ccc(CCN(C)Cc2ccc3n2-c2ccccc2SC3c2ccccc2)cc1OC` (centres undefined), for which the IC50 was 200 nM.
